# Biological target: IpaD^WT (full-length) (Shigella flexneri, UniProt P18013)
# Experiment: CD thermal unfolding at […] nm
# Assay type: binding
# Conditions: 1 mM DOC, PBS pH 7.4, 0.5 mg/ml protein; absolute Tm with ligand, not a shift; nonspecific detergent effect not excluded
# IpaD^WT (full-length), sequence (P18013 whole entry): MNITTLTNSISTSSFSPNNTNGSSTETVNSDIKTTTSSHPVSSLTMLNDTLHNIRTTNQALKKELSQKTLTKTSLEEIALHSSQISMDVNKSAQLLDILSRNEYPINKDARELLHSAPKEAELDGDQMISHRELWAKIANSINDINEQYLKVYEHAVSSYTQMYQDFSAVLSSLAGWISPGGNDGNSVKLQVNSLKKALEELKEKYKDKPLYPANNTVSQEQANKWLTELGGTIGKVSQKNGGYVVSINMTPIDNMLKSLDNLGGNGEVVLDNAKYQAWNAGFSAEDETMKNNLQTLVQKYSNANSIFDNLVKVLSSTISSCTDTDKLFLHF
compound,measurement,value
C[C@H](CCC(=O)O)[C@H]1CC[C@H]2[C@@H]3CC[C@@H]4C[C@H](O)CC[C@]4(C)[C@H]3C[C@H](O)[C@]12C [deoxycholate],Tm ^b (°C ± SD) / +DOC,77 ± 1 °C

# — article PMC11400957 (The Journal of Biological Chemistry, 2024)
